Key:
recombinant human PDE4 = conditions: reported value; read-out: IC50 with respect to inhibiting recombinant human PDE4; cited from earlier work
PDE4 = PDE4 Cellular CNG Assay; type: cell-based; conditions: Activity at 10 μM; HEK293 cells stably expressing the CNG channel
Excerpt: Compounds may be screened for functional potency in in vitro cellular assays for their ability to inhibit the activity of phosphodiesterase (PDE) enzymes. A commercial membrane potential assay, Molecular Device's membrane potential assay kit, was modified and utilized to measure the inhibitory activity of compounds on PDE isoforms in living cells. The cellular assay utilizes genetically engineered cyclic nucleotide-gated (CNG) channels as cyclic-AMP (cAMP) sensors. On binding cAMP these ion channels open, allowing the flow of cations across the plasma membrane. CNG channel activity can be monitored by measuring Ca^2+ influx in cell populations. The influx of Ca causes a change in membrane potential that is measured by voltage sensitive dyes. PDE inhibitors prevent the degradation of cAMP that is generated by adenylyl cyclases that are activated upon stimulation of G protein-coupled receptors (GPCR) linked to the cAMP pathway. In brief, Molecular Device's membrane potential dye was added to HEK293 cells stably expressing the CNG channel and incubated for 2 hours at room temperature. Test compounds were then added to the cells and incubated for 15 minutes. A GPCR agonist was then added to the cells to stimulate the cAMP pathway and incubated for 45 minutes. Fluorescent measurements were then conducted with either the Molecular Devices Acquest or Analyst. PDE inhibitors will inhibit the degradation of cAMP and cause an increase in fluorescent signal. Roflumilast and Rolipram are the positive controls used in the assay.

PDE4B = biological target: T1, PDE4B (Homo sapiens, UniProt Q07343); assay: PDE4 IMAP Assay; type: biochemical; conditions: 2 h; Activity at 10 μM; catalytic domain of PDE4B; read-out: PDE IMAP Assay
T1 construct: hexa-histidine (His6) (N); made in house
T1 sequence (Q07343 330-659 limits assumed, species assumed): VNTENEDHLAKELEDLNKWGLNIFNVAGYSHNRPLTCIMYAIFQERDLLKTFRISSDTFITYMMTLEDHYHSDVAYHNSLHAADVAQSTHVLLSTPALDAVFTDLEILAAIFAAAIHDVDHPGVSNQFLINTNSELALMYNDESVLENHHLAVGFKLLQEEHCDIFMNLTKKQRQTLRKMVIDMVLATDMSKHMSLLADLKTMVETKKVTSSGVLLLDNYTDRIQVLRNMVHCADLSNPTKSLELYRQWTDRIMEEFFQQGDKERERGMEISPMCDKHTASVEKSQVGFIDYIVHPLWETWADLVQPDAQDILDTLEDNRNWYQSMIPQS
Excerpt: Compounds may be screened for functional potency in in vitro biochemical assays for their ability to inhibit the activity of phosphodiesterase (PDE) enzymes. A commercial PDE assay, Molecular Device's PDE IMAP assay, was modified and utilized to measure the inhibitory activity of compounds on PDE isoforms. The IMAP technology is based on the high affinity binding of phosphate by immobilized metal (MIII) coordination complexes on nanoparticles. This IMAP “binding reagent” complexes with phosphate groups on the nucleotide monophosphates generated in the reaction. Such binding causes a change in the rate of the molecular motion of the nucleotide, and results in an increase in the fluorescence polarization value observed for the fluorescent label attached to the substrate. PDE inhibitors prevent the generation of nucleotide monophosphates and the subsequent increase in polarization value observed for the fluorescent label attached to the substrate. The catalytic domain of PDE4B was fused to an amino-terminus hex-histadine affinity tag and purified. PDE4B enzyme was incubated with compounds for 10 minutes. Fluorescently labeled cyclic AMP substrates were then added to the PDE enzyme mix and incubated for 2 hours at room temperature. IMAP binding reagent was then added to the enzyme mix, incubated for 10-30 minutes and fluorescent polarization of the fluorescently labeled substrate was read either with the Perkin Elmer Viewlux or Molecular Devices Acquest or Analyst. Roflumilast and Rolipram are the positive controls used in the assay.

SMILES | IC50 (recombinant human PDE4) [nM] | Cellular CNG Assay (PDE4) | inhibition at 10 µM (PDE4B) [%]
COc1ccc(C2CNC(=O)C2)cc1OC1CCCC1 (stereo not shown) [rolipram] | ~200 |  | 
N#Cc1sc2nc(C3CC3)cc(-c3ccc(F)cc3)c2c1N [Example 9, 3-Amino-6-cyclopropyl-4-(4-fluorophenyl)thieno[2,3-b]pyridine-2-carbonitrile] |  | + (+indicates Activity ≧ 50% at 10 μM) | ≥ 50
CCOc1ccccc1C(=O)Nc1c2c(nn1-c1cccc(Cl)c1)CS(=O)(=O)C2 [Example 14] |  | − (−indicates Activity < 50% at 10 μM) | ≥ 50
COc1ccc(-c2cc(C(F)(F)F)n3ncc(C(=O)Nc4cccc(CCC#N)c4)c3n2)cc1OC [Example 18, N-(3-(2-cyanoethyl)phenyl)-5-(3,4-dimethoxyphenyl)-7-(trifluoromethyl)pyrazolo[1,5-a]pyrimidine-3-carboxamide] |  | + (+indicates Activity ≧ 50% at 10 μM) | ≥ 50
